# According to US20110190192A1, “METHODS FOR TREATING ERECTILE DYSFUNCTION IN PATIENTS WITH INSULIN-DEPENDENT DIABETES” (Cebix Inc., priority 2009, published 2011):
# Assays:
# [1] = system: type 1 diabetes patients with peripheral neuropathy; experiment: ECG and vital signs; type: in vivo, human; conditions: for BPd (diastolic blood pressure) change, mean ± SD / BPd (diastolic blood pressure) change, median / BPs (systolic blood pressure) change, mean ± SD / BPs (systolic blood pressure) change, median / Heart rate change, mean ± SD / Heart rate change, median / QTc-interval Bazett change, mean ± SD / QTc-interval Bazett change, median / QTc-interval Fredericia change, mean ± SD / QTc-interval Fredericia change, median: baseline to 6 months (visit 4), PP data set
# Protocol: ECG was performed at baseline and at end of study, i.e., visit 4 (at 6 months±2 weeks from the S/B visit).
# [2] = system: type 1 diabetes patients with peripheral neuropathy; conditions: in vivo
# Excerpt: (§1) The safety measurements comprised collection of AEs, spontaneously reported by the patient or recorded by the investigator at each clinical visit.
# (§2) An AE was classified as “unexpected event” (i.e., if not specifically listed in the Investigator's Brochure) in terms of nature, severity, or frequency. All AEs, including intercurrent illnesses and increased severity or frequency of sign/symptoms of a concomitant disease was reported and documented as described below. AEs were documented on an “Adverse Event/Serious Adverse Event” page of the CRF and in the patient's medical records. Any AE occurring at any time after the end of the study, considered to be caused by the study medication—and therefore a possible adverse drug reaction—was reported to the sponsor.
# (§3) Hypoglycemic events are common events in insulin-treated patients. For practical reasons only severe hypoglycemic events, i.e., if the patient required assistance from another person in order to regain normoglycaemia, were reported as an AE.
# (§4) The period of observation for AEs extended from the time the patient started on trial medication until end of the study. AEs were divided into the categories “serious” and “non-serious”. This determined the procedure used to report/document the AE.
# (§5) Descriptive statistics were used for safety variables. […] The safety analysis set included all patients who obtained at least one dose of the investigational drug. AEs were coded according to the MedDRA dictionary. The frequencies of AEs are tabulated by body system and included/preferred term.
# [3] = system: type 1 diabetes patients with peripheral neuropathy; experiment: Adverse events
# Excerpt: as §1, §2, §3, §4, §5
# [4] = C-peptide concentrations in plasma (time-resolved fluoroimmunoassay); conditions: dose ranges of the study; very small patient number
# Protocol: Blood samples for determination of C-peptide in plasma were drawn at the S/B visit, visit 2, and at end of study (visit 4).
# The sampling of C-peptide in plasma at visits 2 and 4 coincided with the clinical visit and the time between the most recent administration of the trial drug and sampling varied between patients.
# C-peptide plasma levels were measured at baseline, and after 3 and 6 months of treatment. Analysis was performed by the Department of Clinical Chemistry Karolinska University Hospital, Solna using a time-resolved fluoroimmunoassay (AutoDelfia, Wallac Oy, Turku, Finland).
# C-peptide plasma levels were also measured pre-dosing in the morning in 22 randomly selected patients at the Karolinska Hospital after 4.5 months of study treatment (visit 3).
# [5] = high-dose C-peptide, treatment emergent, any severity, PP data set
# [6] = low-dose C-peptide, treatment emergent, any severity, PP data set
smiles,measurement,setting,value
"CC(C)C[C@H](NC(=O)[C@H](C)NC(=O)[C@H](CC(C)C)NC(=O)[C@@H]1CCCN1C(=O)[C@H](CCC(N)=O)NC(=O)[C@H](CC(C)C)NC(=O)[C@H](CO)NC(=O)CNC(=O)[C@H](C)NC(=O)CNC(=O)[C@@H]1CCCN1C(=O)CNC(=O)CNC(=O)CNC(=O)[C@H](CC(C)C)NC(=O)[C@H](CCC(=O)O)NC(=O)[C@@H](NC(=O)[C@H](CCC(N)=O)NC(=O)CNC(=O)[C@@H](NC(=O)[C@H](CCC(N)=O)NC(=O)[C@H](CC(C)C)NC(=O)[C@H](CC(=O)O)NC(=O)[C@H](CCC(=O)O)NC(=O)[C@H](C)NC(=O)[C@@H](N)CCC(=O)O)C(C)C)C(C)C)C(=O)N[C@@H](CCC(=O)O)C(=O)NCC(=O)N[C@@H](CO)C(=O)N[C@@H](CC(C)C)C(=O)N[C@@H](CCC(N)=O)C(=O)O [C-peptide, Recombinant human C-peptide]","Decrease in systolic blood pressure, high-dose vs low-dose group","[1]; 6 months, p<0.004, not statistically different from placebo",significantly greater decrease
same,"BPd (diastolic blood pressure) change, mean ± SD",[1]; high-dose C-peptide,−2.6 ± 8.0 mmHg
same,"BPd (diastolic blood pressure) change, median",[1]; high-dose C-peptide,−1.0 mmHg
same,"BPs (systolic blood pressure) change, mean ± SD",[1]; high-dose C-peptide,−8.8 ± 10.0 mmHg
same,"BPs (systolic blood pressure) change, median",[1]; high-dose C-peptide,−8.0 mmHg
same,"Heart rate change, mean ± SD",[1]; high-dose C-peptide,−3.2 ± 10.0 bpm
same,"Heart rate change, median",[1]; high-dose C-peptide,−4.0 bpm
same,"QTc-interval Bazett change, mean ± SD",[1]; high-dose C-peptide,-4.5 ± 20.3 ms
same,"QTc-interval Bazett change, median",[1]; high-dose C-peptide,0.0 ms
same,"QTc-interval Fredericia change, mean ± SD",[1]; high-dose C-peptide,-0.5 ± 16.2 ms
same,"QTc-interval Fredericia change, median",[1]; high-dose C-peptide,0.0 ms
same,"BPd (diastolic blood pressure) change, mean ± SD",[1]; low-dose C-peptide,−2.7 ± 8.2 mmHg
same,"BPd (diastolic blood pressure) change, median",[1]; low-dose C-peptide,−1.0 mmHg
same,"BPs (systolic blood pressure) change, mean ± SD",[1]; low-dose C-peptide,−2.1 ± 12.8 mmHg
same,"BPs (systolic blood pressure) change, median",[1]; low-dose C-peptide,−1.0 mmHg
same,"Heart rate change, mean ± SD",[1]; low-dose C-peptide,−0.9 ± 8.2 bpm
same,"Heart rate change, median",[1]; low-dose C-peptide,−2.0 bpm
same,"QTc-interval Bazett change, mean ± SD",[1]; low-dose C-peptide,-0.1 ± 17.5 ms
same,"QTc-interval Bazett change, median",[1]; low-dose C-peptide,0.0 ms
same,"QTc-interval Fredericia change, mean ± SD",[1]; low-dose C-peptide,0.9 ± 14.1 ms
same,"QTc-interval Fredericia change, median",[1]; low-dose C-peptide,1.3 ms
same,"Acute HIV infection, AE intensity (number of AE incidences)",[2],M (1)
same,"Herpes zoster, AE intensity (number of AE incidences)",[2],M (1)
same,Adverse drug reactions or significant changes in safety variables (blood chemistries and vital signs),"[3]; 500-1,500 nmoL/24 h, 6 months",no adverse drug reactions or significant changes in safety variables
same,Local reactions,"[3]; S.C. injection, 6 months",No local reactions were reported
same,Deaths during the study,[3]; all groups,No deaths
same,Serious adverse events (SAEs),"[3]; high-dose C-peptide (1,500 nmoL/24 h)",Two
same,Relationship of the SAEs to the trial medication,"[3]; high-dose C-peptide, investigators' assessment",unlikely/not related
same,"Dizziness (SOC Injury poisoning, procedural complications), number of AEs",[3]; [5],1
same,"Hyperaesthesia, number of AEs",[3]; [5],1
same,"Hyperaesthesia, number of AEs probably/possibly related to study drug",[3]; [5],(1)
same,"Hypoglycemia, number of AEs probably/possibly related to study drug",[3]; [5],(1)
same,"Injection site burning, number of AEs",[3]; [5],1
same,"Injection site burning, number of AEs probably/possibly related to study drug",[3]; [5],(1)
same,"Pain in extremity (SOC Musculoskeletal and connective tissue disorder), number of AEs",[3]; [5],4
same,"Paraesthesia, number of AEs probably/possibly related to study drug",[3]; [5],(2)
same,"Skin infection (SOC Infections and infestations), number of AEs",[3]; [5],1
same,"Skin infection (SOC Skin and subcutaneous tissue disorders), number of AEs",[3]; [5],2
same,"Tendosynovitis stenosans, number of AEs",[3]; [5],1
same,Total number of AEs,[3]; [5],156
same,Total number of AEs probably/possibly related to study drug,[3]; [5],(5)
same,AEs of moderate intensity,[3]; high-dose group,43 AEs
same,AEs of severe intensity,[3]; high-dose group,9 AEs
same,AEs reported as possible/probable related to the study drug,[3]; high-dose group,5 AEs
same,Number of AEs reported,"[3]; high-dose group, n=52, ITT",154 AEs
same,Patients with AEs,"[3]; high-dose group, out of 52",44 patients
same,"Cardiac arrhythmia (SVES), number of AEs",[3]; [6],1
same,"Dizziness (SOC Nervous system disorders), number of AEs",[3]; [6],2
same,"Elevated serum creatinine, number of AEs",[3]; [6],1
same,"Hepatic enzyme increase, number of AEs probably/possibly related to study drug",[3]; [6],(1)
same,"Hyperglycemia, number of AEs probably/possibly related to study drug",[3]; [6],(1)
same,"Hyperthermeasthesia, number of AEs",[3]; [6],2
same,"Hyperthermeasthesia, number of AEs probably/possibly related to study drug",[3]; [6],(2)
same,"Hypoglycemia, number of AEs probably/possibly related to study drug",[3]; [6],(1)
same,"Insulin sensitivity increased, number of AEs",[3]; [6],1
same,"Insulin sensitivity increased, number of AEs probably/possibly related to study drug",[3]; [6],(1)
same,"Musculoskeletal chest pain, number of AEs",[3]; [6],1
same,"Pain in extremity (SOC Musculoskeletal and connective tissue disorder), number of AEs",[3]; [6],3
same,"Pain in extremity (SOC Musculoskeletal and connective tissue disorder), number of AEs probably/possibly related to study drug",[3]; [6],(1)
same,"Paraesthesia, number of AEs probably/possibly related to study drug",[3]; [6],(1)
same,"Skin infection (SOC Infections and infestations), number of AEs",[3]; [6],5
same,"Tachycardia (stress related), number of AEs",[3]; [6],1
same,Total number of AEs,[3]; [6],173
same,Total number of AEs probably/possibly related to study drug,[3]; [6],(8)
same,AEs of moderate intensity,[3]; low-dose group,51 AEs
same,AEs of severe intensity,[3]; low-dose group,1 AEs
same,AEs reported as possible/probable related to the study drug,[3]; low-dose group,8 AEs
same,Number of AEs reported,"[3]; low-dose group, n=56, ITT",173 AEs
same,Patients with AEs,"[3]; low-dose group, out of 56",48 patients
same,Accumulation following repeated dosing,[4],no significant accumulation
